Assay results taken from patent US20260192003A1, “CHELATING COMPOUNDS AND METHODS OF USES THEREOF” (THE REGENTS OF THE UNIVERSITY OF CALIFORNIA, priority 2023, published 2026).
Where two headings read alike, the source gives them in different places. Marks after values point to notes of the source that are not given here.

Legend:
[1] = Spectrophotometric titration, cumulative formation constants and pM with Fe^3+; type: physicochemical; details: 25° C., I = 0.1M KCl; for pM, Fe^3+: pM = -log[M]free, [M]tot = 10^−6M, [L]tot = 10^−5M, pH 7.4
Protocol: The affinity of these ligands for Fe3+ was explored as a representative endogenous metal that could compete with Th^4+ in vivo. The stability constants of DOTHOPO and MeDOTHOPO with Fe^3+ were determined by incremental spectrophotometric titrations, similar to those described for Zr^4+ and Th^4+ in the Supporting Information.
(§1) The log βmlh values reported above are pH-independent absolute stability constants. Because these ligands have differing pKa values, competition between H^+ and the metal of interest under different pH conditions will give rise to different pH-dependent conditional stability constants that are not accurately described by log βML values. To mitigate this issue and allow for direct comparison between ligands, we calculated the pM values (pM=−log[Mfree], where Mfree=solvated metal ions free of complexation by ligand or hydroxide when [L]=10^−5 M and [M]=10^−6 M)^85 for each ligand with the Fe^3+, Zr^4+, and Th^4+ (Table 3).

[2] = UV-vis spectrophotometric titration, cumulative formation constants and pM with Zr^4+; type: physicochemical; details: 25° C., I = 0.1M KCl; for pM, Zr^4+: pM = -log[M]free, [M]tot = 10^−6M, [L]tot = 10^−5M, pH 7.4, MeDOTHOPO predicted from Table 2 log β
Source text: (§2) We next sought to evaluate the thermodynamic stabilities of the Zr^4+ and Th^4+ complexes of DOTHOPO and MeDOTHOPO by measuring their cumulative formation constants (log βmlh, see Supplementary Information for details). […] Above pH 10, the complexes dissociate to yield the free ligand and metal-hydroxide species, which could be leveraged to determine the stability constants of the Zr^4+ and Th^4+ complexes via UV-vis spectrophotometric titrations (FIGS. 2 and 3). […] The pH dependent species distribution diagrams for DOTHOPO with Zr^4+ and Th^4+ are provided in the Supporting Information. Importantly, the metal remains completely bound by the chelator below pH 10 and the major species present at pH 7.4 is the 1:1 ML complex for both metals. […] As such, the log βmlh values of MeDOTHOPO with Zr^4+ and Th^4+ were predicted to be ≥51 and ≥53, respectively, using Hyss (Table 2).
as §1

[3] = UV-vis spectrophotometric titration, cumulative formation constants and pM with Th^4+; type: physicochemical; details: 25° C., I = 0.1M KCl; for pM, Th^4+: pM = -log[M]free, [M]tot = 10^−6M, [L]tot = 10^−5M, pH 7.4, MeDOTHOPO predicted from Table 2 log β
Source text: as §2, §1

[4] = cited from earlier work
[5] = 25° C., I = 0.1M KCl; reference 48; cited from earlier work
[6] = 25° C., I = 0.1M KCl; reference 48; cited from earlier work; remark: listed apart in the source
[7] = cited from earlier work; remark: listed apart in the source
[8] = Potentiometric titration, protonation constants (pKa); type: physicochemical; details: for ΣpKa: sum of the pKa values tentatively assigned to protonation of the HOPO units
Protocol: The protonation constants (pKa) of the synthesized ligands were determined potentiometrically in 0.1 M KCl. […] Based on previous studies involving ligands bearing the tetraazacyclododecane backbone,^80-82 the remaining two pKa values likely correspond to protonation of two of the amine groups present in the macrocycle (Table 1). The 1,2-HOPO donors of MeDOTHOPO are approximately 1 pKa unit more basic than those of 3,4,3-LI-(1,2-HOPO) or DOTHOPO.

[9] = Arsenazo III dye displacement, indirect kinetics of Th^4+ complexation; type: physicochemical; details: for k2: 5 μM Th^4+, 25 μM Arsenazo III, 75 μM ligand (15 equiv.), 100 mM HEPES (pH 7.4), 25° C.
Protocol: Another important aspect of chelators for radiopharmaceutical applications is the kinetics of complexation with the radiometal of interest. A ligand must be able to bind the radioactive metal ion rapidly and completely to minimize the extent of radioactive decay before administration in vivo. […] To access the suitability of DOTHOPO and MeDOTHOPO in this context, we sought to determine the kinetics of Th^4+ complexation of these chelators in aqueous solution at 25° C. […] Following literature precedent,^35 the relative rate of metal complexation by these ligands could be studied indirectly using the dye Arsenazo III, which forms highly colored complexes with Th^4+ with a prominent absorbance band at 669 nm.^92 The addition of excess chelator to solutions of Th^4+ and Arsenazo III caused the dye to be displaced and the formation of the metal-chelator complex could be monitored by the disappearance of the absorbance features corresponding to the metal-dye compound (FIG. 4).
The aim of these experiments was to determine a second-order rate constant for the complexation reaction of Th^4+ by DOTHOPO and MeDOTHOPO. […] For comparison purposes, the second-order rate constant of complexation was calculated using the reaction of 15 equiv. of ligand relative to metal (Table 4, see SI for details). The [ThL] (L=DOTHOPO, MeDOTHOPO) complexes form rapidly in aqueous solution. The second-order halflives, calculated for 10 μM each of metal and ligand, are 30 and 18 min for DOTHOPO and MeDOTHOPO respectively. The faster complexation kinetics of MeDOTHOPO compared to DOTHOPO can likely be attributed to the increased flexibility of the ligand.

[10] = previous work, similar conditions, room temperature, after 2 months; cited from earlier work
[11] = 25° C., I = 0.1M KCl, data taken from Ref. 48
[12] = 25° C., I = 0.1M KCl, reference 48

SMILES	pM, Fe^3+ [1]	pM, Zr^4+ [2]	pM, Th^4+ [3]	pKa1 ([8]; 25° C., I = 0.1M KCl, n = 5)	pKa2 ([8]; 25° C., I = 0.1M KCl, n = 5)	pKa3 ([8]; 25° C., I = 0.1M KCl, n = 5)	pKa4 ([8]; 25° C., I = 0.1M KCl, n = 5)	ΣpKa [8]	log βmih, Fe^3+, [FeLH] [1]	log βmih, Fe^3+, [FeL]^− [1]	k2 [9] [M⁻¹ s⁻¹]	further results
Cn1ccc(C(=O)NCCN(CCNC(=O)c2ccn(C)c(=O)c2O)CCC(Cc2ccc(NC(=O)CCC(=O)O)cc2)N(CCNC(=O)c2ccn(C)c(=O)c2O)CCNC(=O)c2ccn(C)c(=O)c2O)c(O)c1=O (centres unmarked) [L1]	25.1	42.9	39.9									pKa1 [4, 11]: 2.93(35); pKa2 [4, 11]: 4.39(8)^c; pKa3 [4, 11]: 4.73(34); pKa4 [4, 11]: 5.97(14); pKa5 [4, 11]: 6.90(5); pKa6 [4, 11]: 7.74(6); pKa7 [4, 11]: 9.58(16); ΣpKa ([4]; sum of the pKa values assigned to the HOPO units, Ref. 48): 21.99; log βmih, Fe^3+, [FeLH] [5]: 31.2(4); log βmih, Fe^3+, [FeL]^− [5]: 26.9(3); log βmih, Zr^4+, [ZrLH]^+ [6]: 50.6(2); log βmih, Zr^4+, [ZrL] [6]: 44.7(1); log βmih, Th^4+, [ThH−1L]^2− [7, 12]: 32.4(4); log βmih, Th^4+, [ThLH] [7, 12]: 45.9(4); log βmih, Th^4+, [ThL]^− [7, 12]: 41.7(3); log βThL ([7]; background, literature value): 41.72
O=c1cccc(CN2CCN(Cc3cccc(=O)n3O)CCN(Cc3cccc(=O)n3O)CCN(Cc3cccc(=O)n3O)CC2)n1O [MeDOTHOPO, 1,4,7,10-tetraazacyclododecane-1,4,7,10-tetra(methylene)tetrakis(1-hydroxy-2-pyridinone)]	27.6	>46^b	>48^b	10.52(6)	9.1(2)	7.79(8)	6.63(3)	24.96	39.5(4)	30.3(2)	89.2 ± 8.5	pKa5 ([8]; 25° C., I = 0.1M KCl, n = 5): 6.06(3); pKa6 ([8]; 25° C., I = 0.1M KCl, n = 5): 4.41(6)
O=C(O)CN(CCN(CC(=O)O)CC(=O)O)CCN(CC(=O)O)CC(=O)O [DTPA, reference compound]											7.9 ± 0.9	
O=C(c1cccc(=O)n1O)N1CCN(C(=O)c2cccc(=O)n2O)CCN(C(=O)c2cccc(=O)n2O)CCN(C(=O)c2cccc(=O)n2O)CC1 [DOTHOPO]	28.7	43.7	35.3	6.43(9)	5.46(1)	5.05(3)	4.28(6)	21.34	33.3(6)	27.8(4)	54.2 ± 2.8	log βmih, Zr^4+, [ZrLH]^+ [2]: 47.0(6); log βmih, Zr^4+, [ZrL] [2]: 42.9(4); log βmih, Th^4+, [ThLH]^+ [3]: 38.5(1); log βmih, Th^4+, [ThL] [3]: 34.4(1)
O=C(O)CN1CCN(CC(=O)O)CCN(CC(=O)O)CCN(CC(=O)O)CC1 [DOTA, 1,4,7,10-tetraazacyclododecane-N,N′,N″,N″-1,4,7,10-tetraacetic acid, reference compound]												complexation of Th^4+ (Arsenazo III displacement) ([9]; over 24 h at 25° C.): did not show any complexation; displacement of Arsenazo III from Th^4+ [10]: does not displace Arsenazo III
